The record followed here is patent publication US20260176265A1 (Cancer Research Technology Limited, priority 2022, published 2026).

The target in assay [1] is T1, Phospho-EGFR (Tyr1068) in A431 cells (Homo sapiens, UniProt P00533).
T1 construct: endogenous in cells; host or cells: A431
Put plainly: HTRF pEGFR/total EGFR assay in A431 cells (EGF stimulated). Conditions: compound 2.5 hours then 100 ng/ml EGF 30 mins, ratio pEGFR/total EGFR. In kind it is cell-based. In outline: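 HTRF readout (665 and 620 nm) of Tyr1068-phosphorylated versus total EGFR in lysed A431 cells, expressed as ratio relative to 0uM control (%). Compound exposure 2.5 h in duplicate at 0.1% DMSO, with 100 ng/ml EGF added for 30 min.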
(TR-FRET usually uses a lanthanide donor and a delayed reading to cut background.)

Assay [2] addresses CtermHisTag-mEGFR Triple Mutant - C797S, L858R, T790M (Homo sapiens, UniProt P00533, C797S/L858R/T790M). Kind of assay: TR-FRET probe displacement assay, EGFR triple mutant. Format: binding. As to conditions: T790M 1.25 nM, probe 100 nM, 30 mins room temperature. In outline: (§1)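 Probe displacement from His-tagged wild-type or triple-mutant EGFR measured by TR-FRET (excitation 337 nm, emission 490/520 nm). Compounds spanned final concentrations from 3 to 100000 nM over ten points; technical replicates, repeated twice biologically.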

In assay [3] the target is T2, Phospho-EGFR (Tyr1068) in H1975 cells (Homo sapiens, UniProt P00533, L858R/T790M).
T2 construct: host or cells: H1975
T2 sequence (P00533 25-1210 T790M/L858R): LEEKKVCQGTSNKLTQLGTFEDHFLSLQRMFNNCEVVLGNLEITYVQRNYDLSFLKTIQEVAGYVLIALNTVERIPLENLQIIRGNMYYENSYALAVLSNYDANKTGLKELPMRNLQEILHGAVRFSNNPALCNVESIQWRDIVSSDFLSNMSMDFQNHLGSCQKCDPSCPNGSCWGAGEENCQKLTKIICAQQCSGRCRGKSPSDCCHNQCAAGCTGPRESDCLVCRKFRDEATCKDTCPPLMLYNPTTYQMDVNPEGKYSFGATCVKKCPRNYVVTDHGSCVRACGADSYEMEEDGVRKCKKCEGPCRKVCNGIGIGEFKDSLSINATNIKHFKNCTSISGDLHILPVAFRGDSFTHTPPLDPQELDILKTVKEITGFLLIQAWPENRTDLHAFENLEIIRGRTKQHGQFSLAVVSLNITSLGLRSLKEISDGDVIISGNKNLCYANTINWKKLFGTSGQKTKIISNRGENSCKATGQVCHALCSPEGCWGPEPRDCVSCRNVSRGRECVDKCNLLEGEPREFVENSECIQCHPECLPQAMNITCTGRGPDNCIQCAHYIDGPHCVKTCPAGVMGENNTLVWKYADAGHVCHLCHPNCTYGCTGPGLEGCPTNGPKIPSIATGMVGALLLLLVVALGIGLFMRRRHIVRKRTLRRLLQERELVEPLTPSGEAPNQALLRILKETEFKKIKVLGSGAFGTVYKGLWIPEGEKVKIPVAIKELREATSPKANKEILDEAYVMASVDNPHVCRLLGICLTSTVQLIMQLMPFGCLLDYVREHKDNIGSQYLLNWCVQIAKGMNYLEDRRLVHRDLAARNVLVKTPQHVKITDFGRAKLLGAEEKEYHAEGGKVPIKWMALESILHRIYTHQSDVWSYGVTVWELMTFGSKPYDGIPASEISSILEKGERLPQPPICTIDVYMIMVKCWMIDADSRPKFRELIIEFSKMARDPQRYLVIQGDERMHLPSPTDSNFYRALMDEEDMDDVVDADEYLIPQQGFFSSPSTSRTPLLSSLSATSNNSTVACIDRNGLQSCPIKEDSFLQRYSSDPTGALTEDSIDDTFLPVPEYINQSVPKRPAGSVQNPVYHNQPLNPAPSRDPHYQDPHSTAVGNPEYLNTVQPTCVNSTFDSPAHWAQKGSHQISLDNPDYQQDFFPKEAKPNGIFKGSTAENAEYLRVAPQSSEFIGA
Put plainly: HTRF pEGFR/total EGFR assay in H1975 cells. In kind it is cell-based. Conditions: compound 3 hours, ratio pEGFR/total EGFR. The essentials: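 H1975 cells (EGFR L858R/T790M) adhered 24 h, then compound-treated for 3 h in duplicate, 0.1% DMSO final. Lysates read by HTRF at 665/620 nm for phospho-Tyr1068 and total EGFR. Value is pEGFR/total EGFR ratio as % of 0 uM control.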

Assay [4] concerns the target T3, Phospho-EGFR (Tyr1068) in H1975 C797S cells (Homo sapiens, UniProt P00533, C797S/L858R/T790M).
T3 construct: endogenous in cells; host or cells: H1975 C797S (CRISPR-edited in house from ATCC CRL-5908)
Put plainly: HTRF pEGFR/total EGFR assay in H1975 C797S cells. In kind it is cell-based. As to conditions: H1975 C797S cells (CRISPR), compound 3 hours, ratio pEGFR/total EGFR. The essentials: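 Phospho-EGFR (Tyr1068) and total EGFR were measured by HTRF (665 and 620 nm) in lysates of NGS-validated H1975 EGFR C797S cells. Cells were dosed for 3 h in duplicate, 0.1% DMSO final. Read-out is the pEGFR/total EGFR ratio relative to the 0 uM control, as percent.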

Assay [5] deals with CtermHisTag-mEGFR Wild type (Homo sapiens, UniProt P00533). Kind of assay: TR-FRET probe displacement assay, EGFR wild type. In kind it is binding. As to conditions: EGFR wild type 1.25 nM, probe 100 nM, 30 mins room temperature. The essentials:
as §1

Sequence of CtermHisTag-mEGFR Triple Mutant - C797S, L858R, T790M (P00533 25-1210 T790M/C797S/L858R): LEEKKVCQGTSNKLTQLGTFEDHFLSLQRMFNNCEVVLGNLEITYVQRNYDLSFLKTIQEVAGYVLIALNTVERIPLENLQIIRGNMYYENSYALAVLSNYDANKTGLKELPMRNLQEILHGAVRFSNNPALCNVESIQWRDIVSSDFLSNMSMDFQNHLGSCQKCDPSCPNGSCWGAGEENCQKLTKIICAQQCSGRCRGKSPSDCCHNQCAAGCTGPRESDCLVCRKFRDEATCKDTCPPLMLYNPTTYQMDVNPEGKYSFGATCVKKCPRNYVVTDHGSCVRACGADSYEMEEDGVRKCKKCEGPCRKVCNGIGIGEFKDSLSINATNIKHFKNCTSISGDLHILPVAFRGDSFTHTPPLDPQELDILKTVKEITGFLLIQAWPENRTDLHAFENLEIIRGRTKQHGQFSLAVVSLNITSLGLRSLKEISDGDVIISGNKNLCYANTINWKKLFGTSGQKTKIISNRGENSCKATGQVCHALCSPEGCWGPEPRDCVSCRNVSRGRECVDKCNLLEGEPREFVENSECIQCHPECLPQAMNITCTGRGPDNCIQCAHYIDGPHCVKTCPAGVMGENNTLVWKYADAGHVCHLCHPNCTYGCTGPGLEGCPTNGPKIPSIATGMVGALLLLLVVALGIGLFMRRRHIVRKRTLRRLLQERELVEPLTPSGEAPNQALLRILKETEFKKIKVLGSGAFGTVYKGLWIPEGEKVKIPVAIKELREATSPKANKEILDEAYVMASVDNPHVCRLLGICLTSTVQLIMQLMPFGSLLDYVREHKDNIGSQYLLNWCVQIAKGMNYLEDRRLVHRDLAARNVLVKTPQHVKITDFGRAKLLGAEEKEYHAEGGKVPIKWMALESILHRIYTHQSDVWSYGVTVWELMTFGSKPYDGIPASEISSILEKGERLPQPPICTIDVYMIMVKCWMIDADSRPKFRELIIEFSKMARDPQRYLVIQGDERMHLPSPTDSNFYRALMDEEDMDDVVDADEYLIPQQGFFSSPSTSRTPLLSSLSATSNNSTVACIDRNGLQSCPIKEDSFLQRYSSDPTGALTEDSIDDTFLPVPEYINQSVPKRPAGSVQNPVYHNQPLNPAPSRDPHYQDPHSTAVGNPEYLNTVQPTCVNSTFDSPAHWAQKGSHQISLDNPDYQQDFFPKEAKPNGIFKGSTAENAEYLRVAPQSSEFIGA
T3 sequence (P00533 25-1210 T790M/C797S/L858R): as above
Sequence of CtermHisTag-mEGFR Wild type (P00533 25-1210): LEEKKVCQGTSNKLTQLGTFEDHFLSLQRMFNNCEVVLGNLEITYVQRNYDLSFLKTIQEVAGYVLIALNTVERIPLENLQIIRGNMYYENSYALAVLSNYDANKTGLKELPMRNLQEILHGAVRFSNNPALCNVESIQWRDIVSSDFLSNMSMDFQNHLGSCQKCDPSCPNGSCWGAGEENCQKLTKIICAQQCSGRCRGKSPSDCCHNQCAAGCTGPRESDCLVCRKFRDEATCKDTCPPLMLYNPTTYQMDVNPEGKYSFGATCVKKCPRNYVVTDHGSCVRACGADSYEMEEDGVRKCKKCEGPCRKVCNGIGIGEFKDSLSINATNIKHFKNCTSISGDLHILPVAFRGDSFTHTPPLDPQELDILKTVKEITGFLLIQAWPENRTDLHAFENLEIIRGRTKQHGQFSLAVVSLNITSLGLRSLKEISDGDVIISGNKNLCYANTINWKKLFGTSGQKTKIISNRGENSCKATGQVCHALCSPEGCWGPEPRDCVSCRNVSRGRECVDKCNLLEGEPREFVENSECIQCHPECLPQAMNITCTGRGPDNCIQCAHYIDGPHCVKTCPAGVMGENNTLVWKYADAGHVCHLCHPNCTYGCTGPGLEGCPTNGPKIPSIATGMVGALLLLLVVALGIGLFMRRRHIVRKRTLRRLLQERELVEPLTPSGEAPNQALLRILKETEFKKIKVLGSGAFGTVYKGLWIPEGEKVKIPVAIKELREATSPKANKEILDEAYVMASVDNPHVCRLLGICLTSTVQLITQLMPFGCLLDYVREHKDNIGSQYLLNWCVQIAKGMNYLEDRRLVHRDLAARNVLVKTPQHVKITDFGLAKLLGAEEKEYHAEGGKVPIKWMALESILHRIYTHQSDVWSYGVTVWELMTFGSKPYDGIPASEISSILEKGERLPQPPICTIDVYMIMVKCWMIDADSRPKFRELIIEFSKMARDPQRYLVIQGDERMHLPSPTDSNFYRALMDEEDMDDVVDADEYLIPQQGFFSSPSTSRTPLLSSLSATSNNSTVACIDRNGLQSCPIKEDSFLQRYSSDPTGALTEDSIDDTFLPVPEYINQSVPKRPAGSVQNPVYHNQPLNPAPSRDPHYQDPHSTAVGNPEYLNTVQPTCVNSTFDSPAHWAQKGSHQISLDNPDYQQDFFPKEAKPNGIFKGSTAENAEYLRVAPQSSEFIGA

Turning to `C#Cc1cc(N2C(=O)OC[C@@H]2C(C)C)nc2nc(Nc3ccc(N4CCN(C)CC4)cc3)ncc12` [Example 70, (4S)-3-(5-ethynyl-2-{[4-(4-methylpiperazin-1-yl)phenyl]amino}pyrido[2,3-d]pyrimidin-7-yl)-4-isopropyl-1,3-oxazolidin-2-one], the IC50 was 500 to 1000 nM in assay [1]; under 20 nM in assay [2]; 500 to 1000 nM in assay [3]; over 3000 nM in assay [4]; under 1000 nM in assay [5].

Turning to `C#Cc1cc(N2C(=O)NCC23CCCC3)nc2nc(Nc3ccc(N(C)C(C)=O)cc3)ncc12` [Example 93, N-{4-[(5-Ethynyl-7-{2-oxo-1,3-diazaspiro[4.4]nonan-1-yl}pyrido[2,3-d]pyrimidin-2-yl)amino]phenyl}-N-methylacetamide], the half-inhibitory concentration (IC50) in assay [1] was 1000 to 3000 nM; in assay [2] it was 20 to 100 nM; in assay [3], over 3000 nM; in assay [4], 1000 to 3000 nM; in assay [5] it was over 10000 nM.

Regarding `C#Cc1cc(NC(=O)NCc2cnco2)nc2nc(Nc3ccc(N4CCN(C)CC4)cc3)ncc12` [Example 45, 1-(5-ethynyl-2-{[4-(4-methylpiperazin-1-yl)phenyl]amino}pyrido[2,3-d]pyrimidin-7-yl)-3-(1,3-oxazol-5-ylmethyl)urea], the IC50 in assay [1] is over 3000 nM; in assay [2], 20 to 100 nM; in assay [3] it was 500 to 1000 nM; in assay [4] it was 1000 to 3000 nM; in assay [5] it was under 1000 nM.

For `C#Cc1cc(N2CCOC2=O)nc2nc(Nc3ccc(N4CCN(C)CC4)cc3)ncc12` [Example 71, 3-(5-ethynyl-2-{[4-(4-methylpiperazin-1-yl)phenyl]amino}pyrido[2,3-d]pyrimidin-7-yl)-1,3-oxazolidin-2-one], the half-maximal inhibitory concentration (IC50) in assay [1] is 1000 to 3000 nM; in assay [2], under 20 nM; in assay [3], 1000 to 3000 nM; in assay [4], over 3000 nM; in assay [5], under 1000 nM.

For `C#Cc1cc(NC(=O)CCc2ccccc2)nc2nc(Nc3ccc(N4CCN(C)CC4)cc3)ncc12` [Example 32, N-(5-ethynyl-2-{[4-(4-methylpiperazin-1-yl)phenyl]amino}pyrido[2,3-d]pyrimidin-7-yl)-3-phenylpropanamide], the 50% inhibitory concentration (IC50) was over 3000 nM in assay [1]; under 20 nM in assay [2]; 1000 to 3000 nM in assay [3]; 1000 to 3000 nM in assay [4]; 1000 to 10000 nM in assay [5].

Consider `C#Cc1cc(NC(=O)NC2CC2)nc2nc(Nc3ccc(N4CCN(C)CC4)cc3)ncc12` [Example 44, 3-cyclopropyl-1-(5-ethynyl-2-{[4-(4-methylpiperazin-1-yl)phenyl]amino}pyrido[2,3-d]pyrimidin-7-yl)urea], for which the IC50 in assay [1] is 1000 to 3000 nM; in assay [2], under 20 nM; in assay [3] it was under 500 nM; in assay [4], under 500 nM; in assay [5], under 1000 nM.

Regarding `C#Cc1cc(OC)nc2nc(Nc3ccc(N4CCN(C)CC4)cc3)ncc12` [Example 3, 5-ethynyl-7-methoxy-N-(4-(4-methylDiDerazin-1-yl)phenyl)vrido[2,3-d]pyrimidin-2-amine], the half-inhibitory concentration (IC50) is over 3000 nM in assay [1]; 100 to 1000 nM in assay [2]; 500 to 1000 nM in assay [3]; 1000 to 3000 nM in assay [4]; over 10000 nM in assay [5].

Turning to `C#Cc1cc(OC2CCC2)nc2nc(Nc3ccc(N4CCN(C)CC4)cc3)ncc12` [Example 18, 7-cyclobutoxy-5-ethynyl-N-[4-(4-methylpiperazin-1-yl)phenyl]pyrido[2,3-d]pyrimidin-2-amine], the half-inhibitory concentration (IC50) in assay [1] is over 3000 nM; in assay [2], 20 to 100 nM; in assay [3] it was over 3000 nM; in assay [4], over 3000 nM; in assay [5], over 10000 nM.

In the case of `C#Cc1cc(NC(=O)NC2CCCC2)nc2nc(Nc3ccc(N4CCN(C5COC5)CC4)cc3)ncc12` [Example 76, 3-Cyclopentyl-1-[5-ethynyl-2-({4-[4-(oxetan-3-yl)piperazin-1-yl]phenyl}amino)pyrido[2,3-d]pyrimidin-7-yl]urea], the IC50 in assay [1] is under 500 nM; in assay [2], under 20 nM; in assay [3], under 500 nM; in assay [4] it was under 500 nM; in assay [5], under 1000 nM.

On to `C#Cc1cc(N2C(=O)OC[C@H]2C(C)C)nc2nc(Nc3ccc(N4CCN(C)CC4)cc3)ncc12` [Example 69, (4R)-3-(5-ethynyl-2-{[4-(4-methylpiperazin-1-yl)phenyl]amino}pyrido[2,3-d]pyrimidin-7-yl)-4-isopropyl-1,3-oxazolidin-2-one], for which the half-maximal inhibitory concentration (IC50) in assay [1] is over 3000 nM; in assay [2], under 20 nM; in assay [3], 500 to 1000 nM; in assay [4], 500 to 1000 nM; in assay [5] it was over 10000 nM.

Turning to `C#Cc1cc(NC(=O)NCc2ccccn2)nc2nc(Nc3ccc(N4CCN(C)CC4)cc3)ncc12` [Example 49, 3-(5-ethynyl-2-{[4-(4-methylpiperazin-1-yl)phenyl]amino}pyrido[2,3-d]pyrimidin-7-yl)-1-(pyridin-2-ylmethyl)urea], the half-inhibitory concentration (IC50) is over 3000 nM in assay [1]; 20 to 100 nM in assay [2]; 500 to 1000 nM in assay [3]; 1000 to 3000 nM in assay [4]; under 1000 nM in assay [5].

`C#Cc1cc(NC(=O)NC2CCCC2)nc2nc(Nc3cccc(CN4CCC(CS(C)(=O)=O)CC4)c3)ncc12` [Example 87]: the concentration for half-maximal inhibition (IC50) in assay [1] is 1000 to 3000 nM; in assay [2], 20 to 100 nM; in assay [3], over 3000 nM; in assay [4], under 500 nM; in assay [5] it was under 1000 nM.

Take `C#Cc1cc(OC)nc2nc(Nc3ccc(N4CCN(C)CC4)c(NCC4CCC4)c3)ncc12` [Example 10, N^3-(cyclobutylmethyl)-N^1-{5-ethynyl-7-methoxypyrido[2,3-d]pyrimidin-2-yl}-4-(4-methylpiperazin-1-yl)benzene-1,3-diamine]: the IC50 in assay [1] is over 3000 nM; in assay [2], 20 to 100 nM; in assay [3], over 3000 nM; in assay [4] it was over 3000 nM; in assay [5] it was 1000 to 10000 nM.

Take `C#Cc1cc(NC(=O)NC2(C)COC2)nc2nc(Nc3ccc(N4CCN(C)CC4)cc3)ncc12` [Example 61, 1-(5-ethynyl-2-((4-(4-methylpiperazin-1-yl)phenyl)amino)pyrido[2,3-d]pyrimidin-7-yl)-3-(3-methyloxetan-3-yl)urea]: the half-maximal inhibitory concentration (IC50) in assay [1] is over 3000 nM; in assay [2], under 20 nM; in assay [3] it was under 500 nM; in assay [4], under 500 nM; in assay [5] it was under 1000 nM.

Turning to `C#Cc1cc(OC)nc2nc(Nc3ccc(N4CCN(C)CC4)c(Nc4ccccc4)c3)ncc12` [Example 6, N^1-{5-ethynyl-7-methoxypyrido[2,3-d]pyrimidin-2-yl}-4-(4-methylpiperazin-1-yl)-N^3-phenylbenzene-1,3-diamine], the half-maximal inhibitory concentration (IC50) in assay [1] is over 3000 nM; in assay [2], 20 to 100 nM; in assay [3], 1000 to 3000 nM; in assay [4], over 3000 nM; in assay [5], 1000 to 10000 nM.

Regarding `C#Cc1cc(NC(=O)NC2CCCC2)nc2nc(Nc3cccc(CN4CC(CS(C)(=O)=O)C4)c3)ncc12` [Example 85], the IC50 is 1000 to 3000 nM in assay [1]; 20 to 100 nM in assay [2]; over 3000 nM in assay [3]; under 500 nM in assay [4]; under 1000 nM in assay [5].

In the case of `C#Cc1cc(N2C(=O)NCC2C2CCCC2)nc2nc(Nc3ccc(N4CCN(C)CC4)cc3)ncc12` (stereo not drawn) [Example 124, 5-Cyclopentyl-1-(5-ethynyl-2-{[4-(4-methylpiperazin-1-yl)phenyl]amino}pyrido[2,3-d]pyrimidin-7-yl)imidazolidin-2-one], the IC50 in assay [1] is over 3000 nM; in assay [2], 20 to 100 nM; in assay [3], 500 to 1000 nM; in assay [4] it was under 500 nM; in assay [5] it was under 1000 nM.

In the case of `C#Cc1c(C)c(OCC2CCCC2)nc2nc(Nc3ccc(N4CCN(C)CC4)cc3)ncc12` [Example 23, 7-(cyclopentylmethoxy)-5-ethynyl-6-methyl-N-[4-(4-methylpiperazin-1-yl)phenyl]pyrido[2,3-d]pyrimidin-2-amine], the half-inhibitory concentration (IC50) in assay [1] is over 3000 nM; in assay [2] it was 100 to 1000 nM; in assay [3], over 3000 nM; in assay [4], over 3000 nM; in assay [5], over 10000 nM.

For orientation: IC50 means the concentration at which inhibition is half-maximal.
